Results on 21 compounds are retold here after US6827926B2, “Metallotetrapyrrolic photosensitizing agents for use in photodynamic therapy” (Miravant Pharmaceuticals, Inc., priority 2001, dated 2004).

Like-named read-outs stand apart in the source and are kept apart here.

Series [1] has as its system V79 (Chinese Hamster Lung Fibroblasts) cells. Briefly: In vitro cytotoxicity assay (light EC50, Alamar blue). The format is cell-based. The gist of the method: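 V79 cells in phenol-free 5% FBS/DMEM exposed 24 h to photosensitizer at final 0.01–5.0 μM, six replicates, then washed and light-treated, with a dark plate as control. Survival by Alamar blue after 24 h dark incubation, read at 570/600 nm.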
On the technique in general: Resazurin is reduced to fluorescent resorufin, in cell work by metabolically active cells.

For series [2], the system named is normal skin of CD Hairless male rats. The format is in vivo, rat. The gist of the method:
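Liposomal egg yolk phospholipid photosensitizer given as single i.v. tail-vein bolus at 1, 1.5 and 2 μmol/kg; skin spots irradiated with 532 nm laser (150 mW/cm^2, 150J, 1 cm) at 1, 6, 24, 48, 96 hrs post injection. Value is time of last observed skin response spot.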

Series [3] concerns normal uninjured rat carotid arteries (medial and adventitial cell populations). Briefly: In vivo rat carotid artery acellularity after PDT. The following applies: for Max % rat Artery Accelularity: Table 3; for accelularity in rat artery at a four hour treatment point: 4 hrs post administration. On the set-up: species or system Sprague Dawley rats. The gist of the method: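 Metallated photosensitizers light-activated in normal uninjured rat left common carotid via balloon catheter introduced through femoral arteriotomy under isoflurane; excitation 575 nm (Ga, Zn, Al, Sn) or 532 nm (Pt). Arteries harvested 3 days post-treatment, H&E-stained; medial and adventitial cell density assessed by light microscopy.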

Where [4] appears, read: Table 3 porphyrins, 24 h drug incubation, 532 nm, 1.25 J/cm^2, read-out: In Vitro EC50 Light.
Setting [5] is: drug dose 1 μMol, 50 J/cm^2, 3 days post treatment.
[6] abbreviates: Table 4 azaporphyrins, 575 nm (Pt azaporphyrins 532 nm), 1.25 J/cm^2, read-out: In Vitro EC(50).
Setting [7] is: Table 4, drug dose 1 μMol, 575 nm (Pt 532 nm).

On to `CCC1=C(C)c2cc3[n-]c(cc4nc(cc5[n-]c(cc1n2)c(C)c5CCC(=O)OCCF)C(CCC(=O)OCCF)=C4C)c(C)c3CC.[Cl-].[Ga+3]` [Example 34, Gallium Chloride Mesoporphyrin di (2-fluoroethylester)], for which the EC50 in series [1] (setting [4]) was determined as 400 nM. The “Normal skin Response (1 μmol)” value in series [2] (rat, in vivo) was 24 h. The “Max % rat Artery Accelularity” value in series [3] (setting [5]) was determined as 80%.

`CC1=Cc2cc3[n-]c(cc4nc(cc5[n-]c(cc1n2)c(C)c5CCCO)C(CCCO)=C4C)cc3C.[Cl-].[Ga+3]` [Example 8, Gallium Chloride 8,13-desvinyl-3,7,12,17-tetramethylporphyrin-2,18-di(3′-hydroxypropyl)]: the EC50 in series [1] (setting [4]) was found to be 400 nM. Besides, in series [2] (rat, in vivo), the “Normal skin Response (1 μmol)” value is 96 h. Besides, the “Max % rat Artery Accelularity” value in series [3] (setting [5]) is given as 80%.

`COC(=O)CCC1=C(C)C2=Cc3c(C)c(CN(C)C)c4[n]3[Pt][n]3c(c(C)c(CCC(=O)OC)c3=CC1=N2)=CC1=NC(=C4)C(C)=C1CN(C)C` [Example 41, Platinum 3,8-Bis(dimethylaminomethyl) deuteroporphyrin dimethyl ester]: the EC50 in series [1] (setting [4]) turned out to be 200 nM. Moreover, the “Normal skin Response (1 μmol)” value in series [2] (rat, in vivo) came out at 48 h. In series [3] (setting [5]), the “Max % rat Artery Accelularity” value was determined as 0%.

For the compound `CCC1=C(C)c2cc3[n-]c(cc4nc(cc5[n-]c(cc1n2)c(C)c5CC)C(C)=C4CCCN1CCCC1)c(CCCN1CCCC1)c3C.[Pt+2]` [Example 77, Platinum 8,13-diethyl-3,7,12,17-tetramethylporphyrin-2,18-di(3-(N-pyrrolidino)propyl)], the EC50 in series [1] (setting [4]) was determined as 100 nM. Moreover, the “Normal skin Response (1 μmol)” value in series [2] (Table 3, time of last skin spot observed post injection, 1 μmol, 532 nm laser) is 96 h. For the same compound, in series [3] (setting [5]), the “Max % rat Artery Accelularity” value worked out at 25%.

Regarding `COC(=O)CCC1=C(C)c2cc3[n-]c(cc4nc(cc5[n-]c(cc1n2)c(CCC(=O)OC)c5C)C(CN(C)C)=C4C)c(CN(C)C)c3C.[Ga+3].[OH-]` [Example 12, Gallium Hydroxy 3,8-N,N-dimethylaminomethyl deuteroporphyrin dimethyl ester], the EC50 in series [1] (setting [4]) came out at 500 nM. The “Normal skin Response (1 μmol) in hrs” value in series [2] (rat, in vivo) is “None”. The “Max % rat Artery Accelularity” value in series [3] (setting [5]) is listed as 50%.

With “Gallium Chloride 3,7,14,17-tetramethyl-5,10-diazaporphyrin-2,8,12,18-tetra(propionic acid methyl ester) [Example 116]”, in series [1] (light EC50, metallodiazaporphyrins, read-out: In Vitro EC(50)), the EC50 is 350 nM. Further, the “Normnal skin Response (1 μmol)” value in series [2] (rat, in vivo) is reported as 4. For the same compound, in series [3] (drug dose 1 (μMol), i.v., 50 J/cm^2, 160 mW/cm^2, Ga excited at 575 nm, sacrifice three days post treatment), the “Max % Rat Artery Accelularity” value was 55%.

For the compound `CCC1=C(CC)C2=[N+]3C1=Nc1c(CC)c(CC)c4[n]1[Sn-2]31([Cl])([Cl])[n]3c(c(C)c(CCC(=O)OC)c3=CC3=[N+]1C(=C4)C(C)=C3CCC(=O)OC)=C2` [Example 82, Tin(IV)dichloride 7,8,12,13-tetraethyl-12,17-dimethyl-10-azaporphyrin-2,18-di(propionic acid methyl ester)], in series [1] (setting [6]), the EC50 came out at 400 nM. Also, the “Normal skin Response (1 μmol)” value in series [2] (rat, in vivo) amounted to 96 h. Besides, the “Max % Rat Artery Accelularity” value in series [3] (setting [7]) stood at 30%.

As to `CCC1=C(C)c2cc3[n-]c(cc4nc(cc5[n-]c(cc1n2)c(C)c5CC)C(C)=C4CCCO)c(CCCO)c3C.[Cl-].[In+3]` [Example 72, Indium Chloride 8,13-diethyl-3,7,12,17-tetramethylporphyrin-2,18-di(3′-hydroxypropyl)], the EC50 in series [1] (setting [4]) was determined as 40 nM. Also, the “Normal skin Response (1 μmol)” value in series [2] (rat, in vivo) was found to be 96 h. Further, the “Max % rat Artery Accelularity” value in series [3] (drug dose 0.5 μMol) stood at 40%.

As to `CCOC(=O)CCCCC1=C(C)c2cc3[n-]c(cc4nc(cc5[n-]c(cc1n2)c(CCCCC(=O)OCC)c5C)C(C)=C4CC)c(C)c3CC.[Cl-].[Ga+3]` [Example 28, Gallium Chloride 8,13-diethyl-3,7,12,17-tetramethylporphyrin-2,18-di(pentanoic acid ethyl ester)], the EC50 in series [1] (setting [4]) came out at 400 nM. Further, the “Normal skin Response (1 μmol)” value in series [2] (rat, in vivo) stood at 6 h. In addition, in series [3] (setting [5]), the “Max % rat Artery Accelularity” value worked out at 80%.

Consider `CCC1=C(C)C2=[N+]3C1=Cc1c(C)c(CC)c4[n]1[Zn-2]31[n]3c(c(C)c(CCC(=O)N(CC)CC)c3=CC3=[N+]1C(=C4)C(C)=C3CCC(=O)N(CC)CC)=C2` (centres unmarked) [Example 62, Zinc Mesoporphyrin N,N-diethylamide], for which the EC50 in series [1] (setting [4]) worked out at 4000 nM. Moreover, in series [2] (rat, in vivo), the “Normal skin Response (1 μmol)” value stood at 24 h. Moreover, in series [3] (setting [5]), the “Max % rat Artery Accelularity” value worked out at 0%.

As to `CCC1=C(C)C2=[N+]3C1=Cc1c(C)c(CC)c4[n]1[Ga-2]31([OH])[n]3c(c(C)c(CCCNCCCO)c3=CC3=[N+]1C(=C4)C(C)=C3CCCNCCCO)=C2` [Example 78, Gallium Hydroxy 8,13-diethyl-3,7,12,17 tetramethylporphyrin-2,18-di((N-3′-hydoxypropyl)-3-aminopronpyl)], in series [1] (setting [4]), the EC50 was determined as 1000 nM. Besides, in series [2] (rat, in vivo), the “Normal skin Response (1 μmol)” value was determined as 6 h. For the same compound, the “Max % rat Artery Accelularity” value in series [3] (drug dose 2 μMol) was 10%.

For the compound `CCOC(=O)CCCCC1=C(C)c2cc3[n-]c(cc4nc(cc5[n-]c(cc1n2)c(CCCCC(=O)OCC)c5C)C(C)=C4CC)c(C)c3CC.[Cl-].[In+3]` [Example 52, Indium Chloride 8,13-diethyl-3,7,12,17-tetramethylporphyrin-2,18-di(pentanoic acid ethyl ester)], the EC50 in series [1] (setting [4]) is 50 nM. Further, the “Normal skin Response (1 μmol)” value in series [2] (rat, in vivo) came to 48 h. The “Max % rat Artery Accelularity” value in series [3] (setting [5]) stood at 75%.

“Tin (IV) Dichloride Mesoporphyrin Dimethyl Ester [Example 32]”: the EC50 in series [1] (setting [4]) is 1400 nM. The “Normal skin Response (1 μmol)” value in series [2] (rat, in vivo) stood at 24 h. For the same compound, the “Max % rat Artery Accelularity” value in series [3] (setting [5]) is 20%.

With `CCCOC(=O)CCCCC1=C(C)C2=Cc3c(CC)c(C)c4[n]3[Ga-2]35([Cl])[n]6c(c(C)c(CCCCC(=O)OCCC)c6=CC1=[N+]23)=CC1=[N+]5C(=C4)C(CC)=C1C` [Example 56, Gallium Chloride 8,13-diethyl-3,7,12,17-tetramethylporphyrin-2,18-di(pentanoic acid propyl ester)], in series [1] (setting [4]), the EC50 amounted to 400 nM. In addition, the “Normal skin Response (1 μmol)” value in series [2] (rat, in vivo) was determined as 24 h. The “Max % rat Artery Accelularity” value in series [3] (setting [5]) is 75%.

As to `CCC1=C(CC)C2=Nc3c(CC)c(CC)c4[n]3[Sn]([Cl])([Cl])[n]3c(c(C)c(CCC(=O)NC)c3=CC3=NC(=C4)C(C)=C3CCC(=O)NC)=CC1=N2` [Example 90, Tin (IV) Dichloride 7,8,12,13-tetraethyl-12,17-dimethyl-10-azaporphyrin-2,18-di(propionic acid methyl amide)], the EC50 in series [1] (setting [6]) turned out to be 500 nM. Also, the “Normal skin Response (1 μmol)” value in series [2] (rat, in vivo) worked out at 96 h. Further, in series [3] (setting [7]), the “Max % Rat Artery Accelularity” value is recorded as 30%.

For the compound `CCC1=C(CC)c2nc1cc1[nH]c(cc3nc(cc4[nH]c(n2)c(CC)c4CC)C(C)=C3CCC(=O)O)c(CCC(=O)O)c1C` [M=H2 R1,R3=Et R2,R4=Et R=CO2H], the EC50 in series [1] (setting [6]) amounted to 450 nM. Moreover, in series [2] (rat, in vivo), the “Normal skin Response (1 μmol) in hrs” value is “None”. The “accelularity in rat artery at a four hour treatment point” value in series [3] amounted to 0%. Moreover, the “Max % Rat Artery Accelularity” value in series [3] (setting [7]) came out at 0%.

Regarding “Gallium Chloride Rhodoporphyrin Di-methylester [Example 123]”, in series [1] (Table 5 plant derived gallium porphyrins, light, read-out: In Vitro EC(50)), the EC50 came to 400 nM. This compound showed a Normal skin Response (1 μmol) in series [2] (rat, in vivo) of 6 h. The “Max % Rat Artery Acceluarity” value in series [3] (Table 5, drug dose 1 μMol) is recorded as 60%.

For `CCC1=C(CC)C2=[N+]3C1=Nc1c(CC)c(CC)c4[n]1[In-2]31([Cl])[n]3c(c(C)c(CCC(=O)OC)c3=CC3=[N+]1C(=C4)C(C)=C3CCC(=O)OC)=C2` [Example 83, Indium Chloride 7,8,12,13-tetraethyl-12,17-dimethyl-10-azaporphyrin-2,18-di(propionic acid methyl ester)], the EC50 in series [1] (setting [6]) was 30 nM. Besides, the “Normal skin Response (1 μmol)” value in series [2] (rat, in vivo) is 48 h. Besides, in series [3] (setting [7]), the “Max % Rat Artery Accelularity” value amounted to 50%.

Take `CCOC(=O)CCC1=C(C)c2cc3[n-]c(cc4nc(cc5[n-]c(cc1n2)c(CCC(=O)OCC)c5C)C=C4C)cc3C.[Cl-].[Ga+3]` [Example 5, Gallium Chloride Deuteroporphyrin Diethyl Ester]: the EC50 in series [1] (setting [4]) worked out at 400 nM. For the same compound, the “Normal skin Response (1 μmol)” value in series [2] (rat, in vivo) was determined as 48 h. The “Max % rat Artery Accelularity” value in series [3] (setting [5]) is listed as 80%.

`CCC1=C(CC)C2=[N+]3C1=Nc1c(CC)c(CC)c4[n]1[Ga-2]31([Cl])[n]3c(c(C)c(CCC(=O)O)c3=CC3=[N+]1C(=C4)C(C)=C3CCC(=O)O)=C2` [Example 87, Gallium Chloride 7,8,12,13-tetraethyl-12,17-dimethyl-10-azaporphyrin-2,18-di(propionic acid)]: in series [1] (setting [6]), the EC50 amounted to 310 nM. In series [2] (rat, in vivo), the “Normal skin Response (1 μmol)” value turned out to be 24 h. Besides, the “accelularity in rat artery at a four hour treatment point” value in series [3] worked out at 30%. For the same compound, the “Max % Rat Artery Accelularity” value in series [3] (setting [7]) is given as 30%.

As for `CC1=Cc2cc3[n-]c(cc4nc(cc5[n-]c(cc1n2)c(C)c5CCC(=O)OCC(F)(F)F)C(CCC(=O)OCC(F)(F)F)=C4C)cc3C.[Cl-].[Ga+3]` [Example 38, Gallium Chloride Deuteroporphyrin di (2,2,2-trifluoroethylester)], the EC50 in series [1] (setting [4]) was found to be 400 nM. Moreover, in series [2] (rat, in vivo), the “Normal skin Response (1 μmol)” value amounted to 24 h. Moreover, the “Max % rat Artery Accelularity” value in series [3] (setting [5]) was found to be 80%.
